The record followed here is ChEMBL document CHEMBL1155151, “First occurrence of an Escherichia coli clinical isolate producing the VIM-1/VIM-2 hybrid metallo-beta-lactamase VIM-12” (2007).

Holding throughout (assay type): functional
Test [1] relates to Escherichia coli. Put plainly: Antibacterial activity against Escherichia coli transconjugant carrying pEC28 isolate eby Etest.
Test [2] has as its system Escherichia coli. Put plainly: Antibacterial activity against metallo-beta-lactamase VIM12 expressing Escherichia coli 28 isolate from decubitus ulcer infection patient by Etest.
Test [3] concerns Escherichia coli. As to the kind of experiment: Antibacterial activity against Escherichia coli 26R793 by Etest.

In brackets after ≈: the same amount, converted by molar mass.

As for `NCC[C@H](O)C(=O)N[C@@H]1C[C@H](N)[C@@H](O[C@H]2O[C@H](CN)[C@@H](O)[C@H](O)[C@H]2O)[C@H](O)[C@H]1O[C@H]1O[C@H](CO)[C@@H](O)[C@H](N)[C@H]1O` [AMIKACIN], the MIC in test [1] stood at 48 µg/mL (≈ 82 µM); in test [2], 128 µg/mL (≈ 219 µM); in test [3] it was 2 µg/mL (≈ 3.42 µM).

Consider `CC1(C)S[C@@H]2[C@H](NC(=O)[C@H](N)c3ccc(O)cc3)C(=O)N2[C@H]1C(=O)O` [AMOXICILLIN], for which the minimum inhibitory concentration (MIC) is 32 µg/mL (≈ 87.6 µM) in test [1], more than 256 µg/mL in test [2] and 4 µg/mL (≈ 10.9 µM) in test [3].

On to `C[C@H]1[C@H](NC(=O)/C(=N\OC(C)(C)C(=O)O)c2csc(N)n2)C(=O)N1S(=O)(=O)O` [AZTREONAM], for which the minimal inhibitory concentration (MIC) in test [1] amounted to 0.5 µg/mL (≈ 1.15 µM); in test [2], 1 µg/mL (≈ 2.3 µM); in test [3] it was 0.094 µg/mL (≈ 0.216 µM).

Turning to `CO/N=C(\C(=O)N[C@@H]1C(=O)N2C(C(=O)[O-])=C(C[N+]3(C)CCCC3)CS[C@H]12)c1csc(N)n1` [CEFEPIME], the minimal inhibitory concentration (MIC) turned out to be 1 µg/mL (≈ 2.08 µM) in test [1], 12 µg/mL (≈ 25 µM) in test [2] and 0.094 µg/mL (≈ 0.196 µM) in test [3].

As to `CO/N=C(\C(=O)N[C@@H]1C(=O)N2C(C(=O)O)=C(COC(C)=O)CS[C@H]12)c1csc(N)n1` [CEFOTAXIME], the minimal inhibitory concentration (MIC) in test [1] is 8 µg/mL (≈ 17.6 µM); in test [2], more than 32 µg/mL; in test [3], 0.094 µg/mL (≈ 0.206 µM).

In the case of `CO[C@@]1(NC(=O)Cc2cccs2)C(=O)N2C(C(=O)O)=C(COC(N)=O)CS[C@@H]21` [CEFOXITIN], the MIC is 32 µg/mL (≈ 74.9 µM) in test [1], more than 256 µg/mL in test [2] and 8 µg/mL (≈ 18.7 µM) in test [3].

For `CC(C)(O/N=C(\C(=O)N[C@@H]1C(=O)N2C(C(=O)[O-])=C(C[n+]3ccccc3)CS[C@H]12)c1csc(N)n1)C(=O)O` [CEFTAZIDIME], the MIC is 4 µg/mL (≈ 7.32 µM) in test [1], more than 256 µg/mL in test [2] and 0.75 µg/mL (≈ 1.37 µM) in test [3].

For the compound `O=C(O)c1cn(C2CC2)c2cc(N3CCNCC3)c(F)cc2c1=O` [CIPROFLOXACIN], the minimum inhibitory concentration (MIC) in test [1], in test [2] and in test [3] was 0.047 µg/mL (≈ 0.142 µM) each time.

Turning to `C[C@@H](O)[C@H]1C(=O)N2C(C(=O)O)=C(S[C@@H]3CN[C@H](C(=O)Nc4cccc(C(=O)O)c4)C3)[C@H](C)[C@H]12` [ERTAPENEM], the minimum inhibitory concentration (MIC) in test [1] is 0.094 µg/mL (≈ 0.198 µM); in test [2], 0.5 µg/mL (≈ 1.05 µM); in test [3], 0.064 µg/mL (≈ 0.135 µM).

As to `C[C@@H](O)[C@H]1C(=O)N2C(C(=O)O)=C(SCCNC=N)C[C@H]12` [IMIPENEM ANHYDROUS], the minimal inhibitory concentration (MIC) in test [2] stood at 1 µg/mL (≈ 3.34 µM); in test [3] it was 0.5 µg/mL (≈ 1.67 µM).

`C[C@@H](O)[C@H]1C(=O)N2C(C(=O)O)=C(S[C@@H]3CN[C@H](C(=O)N(C)C)C3)[C@H](C)[C@H]12` [MEROPENEM]: the minimum inhibitory concentration (MIC) was 0.023 µg/mL (≈ 0.06 µM) in test [1], 0.25 µg/mL (≈ 0.652 µM) in test [2] and 0.032 µg/mL (≈ 0.0834 µM) in test [3].

Regarding `CN(C)[C@@H]1C(O)=C(C(N)=O)C(=O)[C@@]2(O)C(O)=C3C(=O)c4c(O)cccc4[C@@](C)(O)[C@H]3C[C@@H]12` [TETRACYCLINE], the MIC was 1 µg/mL (≈ 2.25 µM) in test [1], more than 256 µg/mL in test [2] and 1 µg/mL (≈ 2.25 µM) in test [3].

As usually defined, the MIC is the lowest concentration found to suppress growth. A lower MIC goes with greater potency.
